# From PMC3047706 (Chemmedchem, 2010)
# Counter-ions that a name gives are not always drawn.
# Molecular target: T1, T. cruzi TryR (Trypanosoma cruzi, UniProt P28593)
# Assay: DTNB-coupled TryR assay, global fit of mode of inhibition
# Assay type: biochemical
# Conditions: not given
# T1 sequence (P28593 whole entry): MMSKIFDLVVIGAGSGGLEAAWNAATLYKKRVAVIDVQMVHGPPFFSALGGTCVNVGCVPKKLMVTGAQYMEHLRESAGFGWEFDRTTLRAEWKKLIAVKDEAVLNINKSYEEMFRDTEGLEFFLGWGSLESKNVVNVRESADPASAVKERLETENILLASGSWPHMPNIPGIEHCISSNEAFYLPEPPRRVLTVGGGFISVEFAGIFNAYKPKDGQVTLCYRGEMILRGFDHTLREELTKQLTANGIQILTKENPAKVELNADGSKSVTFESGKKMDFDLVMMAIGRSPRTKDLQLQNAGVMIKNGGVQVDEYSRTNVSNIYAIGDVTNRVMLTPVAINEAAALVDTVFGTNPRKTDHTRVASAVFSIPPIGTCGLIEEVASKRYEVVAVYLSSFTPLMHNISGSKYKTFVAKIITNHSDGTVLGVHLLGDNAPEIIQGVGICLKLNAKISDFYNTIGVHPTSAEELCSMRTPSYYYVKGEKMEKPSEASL
row,Ki [µM],Structure (SMILES)
1,3.5 ± 0.4,"CC(C)CCN[C@@H]1C[C@@H](c2ccc(Cl)c(Cl)c2)c2ccccc21 (relative stereo) [8ii, Trans-[3-(3,4-dichlorophenyl)indan-1-yl]-(3-methylbutyl)amine hydrochloride]"

# Molecular target: T2, human GR (Homo sapiens, UniProt P00390)
# T2 sequence (P00390 44-522): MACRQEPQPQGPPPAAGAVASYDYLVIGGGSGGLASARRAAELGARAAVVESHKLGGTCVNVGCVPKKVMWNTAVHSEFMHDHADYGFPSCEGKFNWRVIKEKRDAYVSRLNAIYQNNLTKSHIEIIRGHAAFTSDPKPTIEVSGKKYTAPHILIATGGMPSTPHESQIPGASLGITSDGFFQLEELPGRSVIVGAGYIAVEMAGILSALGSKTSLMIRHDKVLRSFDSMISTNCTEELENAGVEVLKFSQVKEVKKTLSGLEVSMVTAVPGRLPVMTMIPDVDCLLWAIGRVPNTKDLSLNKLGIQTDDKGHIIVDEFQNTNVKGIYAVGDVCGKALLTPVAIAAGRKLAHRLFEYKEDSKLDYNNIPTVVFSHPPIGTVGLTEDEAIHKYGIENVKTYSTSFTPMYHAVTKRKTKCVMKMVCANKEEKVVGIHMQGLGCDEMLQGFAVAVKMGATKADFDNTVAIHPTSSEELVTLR
# Assay: DTNB-coupled GR microplate assay, single concentration in duplicate
# Assay type: biochemical
# Conditions: read-out: % inhibition at 25 μM
row,Structure (SMILES),inhibition at 25 µM [%]
1,"CN[C@@H]1C[C@@H](c2ccc(Cl)c(Cl)c2)c2ccccc21 [compound 3, indatraline]",< 12

# Molecular target: T1, T. cruzi TryR
# Assay: DTNB-coupled TryR microplate assay, […] nm
# Assay type: biochemical
# Conditions: not given
row,IC50 [µM],Structure (SMILES)
1,4.05 ± 0.39,"CC(C)CCN[C@@H]1C[C@@H](c2ccc(Cl)c(Cl)c2)c2ccccc21 (relative stereo) [8ii, Trans-[3-(3,4-dichlorophenyl)indan-1-yl]-(3-methylbutyl)amine hydrochloride]"
2,45.9 ± 4.2,"Clc1ccc(CN[C@@H]2C[C@@H](c3ccc(Cl)c(Cl)c3)c3ccccc32)cc1Cl (relative stereo) [8ix, Trans-[3-(3,4-dichlorophenyl)indan-1-yl]-(3,4-dichlorobenzyl)amine]"
3,173 ± 56,"Clc1ccc([C@@H]2C[C@@H](N3CCOCC3)c3ccccc32)cc1Cl (relative stereo) [8vi, Trans-4-[3-(3,4-dichlorophenyl)indan-1-yl]morpholine]"
4,13 ± 1.6,"Cc1ccc(CN[C@@H]2C[C@@H](c3ccc(Cl)c(Cl)c3)c3ccccc32)cc1 (relative stereo) [8x, Trans-[3-(3,4-dichlorophenyl)indan-1-yl]-(4-methylbenzyl)amine]"
5,4.14 ± 0.41,"COc1ccc(CN[C@@H]2C[C@@H](c3ccc(Cl)c(Cl)c3)c3ccccc32)cc1 (relative stereo) [8xi, Trans-[3-(3,4-dichlorophenyl)indan-1-yl]-(4-methoxybenzyl)amine]"
6,7.38 ± 1.21,"CN(C)c1ccc(CN[C@@H]2C[C@@H](c3ccc(Cl)c(Cl)c3)c3ccccc32)cc1 (relative stereo) [8xii, Trans-[3-(3,4-dichlorophenyl)indan-1-yl]-(4-dimethylaminobenzyl)amine]"
7,> 200,"CC(=O)N[C@@H]1C[C@@H](c2ccc(Cl)c(Cl)c2)c2ccccc21 (relative stereo) [8xiv, Trans-N-[3-(3,4-dichlorophenyl)indan-1-yl]acetamide]"
8,32.9 ± 4.3,"COc1ccc2c(c1)[C@H](NCCC(C)C)C[C@H]2c1ccc(C)cc1 (relative stereo) [8xix, Trans-[3-(4-methylphenyl)-6-methoxyindan-1-yl]-(3-methylbutyl)amine]"
9,> 200,"Cc1ccc(S(=O)(=O)N[C@@H]2C[C@@H](c3ccc(Cl)c(Cl)c3)c3ccccc32)cc1 (relative stereo) [8xv, Trans-N-[3-(3,4-dichlorophenyl)indan-1-yl]-4-methylbenzenesulfonamide]"
10,2.23 ± 0.66,"COc1ccc2c(c1)[C@H](NCCC(C)C)C[C@H]2c1ccc(Cl)c(Cl)c1 (relative stereo) [8xvi, Trans-[3-(3,4-dichlorophenyl)-6-methoxyindan-1-yl]-(3-methylbutyl)amine]"
11,3.15 ± 0.23,"COc1ccc2c(c1)[C@H](NCCC(C)C)C[C@H]2c1ccc(Br)c(Br)c1 (relative stereo) [8xvii, Trans-[3-(3,4-dibromophenyl)-6-methoxyindan-1-yl]-(3-methylbutyl)amine]"
12,15.8 ± 1.6,"COc1ccc2c(c1)[C@H](NCCC(C)C)C[C@H]2c1ccc(Cl)cc1 (relative stereo) [8xviii, Trans-[3-(4-chlorophenyl)-6-methoxyindan-1-yl]-(3-methylbutyl)amine]"
13,3.07 ± 0.45,"COc1ccc2c(c1)[C@@H](NCc1ccccc1)C[C@@H]2c1ccc(Cl)c(Cl)c1 (relative stereo) [8xxi, Trans-benzyl-[3-(3,4-dichlorophenyl)-6-methoxyindan-1-yl]amine]"
14,8.04 ± 0.91,Clc1ccc(C2CC(NCc3ccccc3)c3ccccc32)cc1Cl (centres unmarked) [8vii]
15,125 ± 17,COc1cccc(C2CC(NCCC(C)C)c3cc(OC)ccc32)c1 (centres unmarked) [8xx]
